Test results as given in article PMC12040169 (PLOS Biology, 2025).

Assay: in vitro
Conditions: human, hela cells, % viability

Compound | viability at 28.5 h, 10 µM [%]
c1cnn(CC2CCCCN2c2ncnc3ccsc23)c1 (stereo not shown) [CBK304843] | 88.3
N#Cc1ccccc1C(=O)N(CCO)Cc1ccccc1 [CBK304844] | 89.8
CC(Cn1cccn1)NCC(=O)NC1(C#N)CCCCC1 (stereo not shown) [CBK304845] | 102
Cc1cc(C)n(CC2CCCN2CCc2ccccn2)n1 (stereo not shown) [CBK304846] | 100
O=C1CCC(CNS(=O)(=O)c2ccccc2Cl)N1 (stereo not shown) [CBK304850] | 103
Cc1nnc(CN(C)C2CCN(CC3CCCC3)C2)n1C (stereo not shown) [CBK304851] | 106
Cc1cc(C)n(CC2CCCCN2Cc2ccccn2)n1 (stereo not shown) [CBK304853] | 86.7
CCC(O)CN1CCCC(c2nc3cc(C)ccc3[nH]2)C1 (stereo not shown) [CBK304854] | 88.8
Cc1cc(CNCc2c(C(C)C)nn(C)c2N(C)C)no1 [CBK304855] | 97
Cc1noc(C2(O)CCN(Cc3sccc3Cl)C2)n1 (stereo not shown) [CBK304863] | 97.5
Cc1ccc(C)c(CSC2CCN(C3CCOCC3)C2=O)c1 (stereo not shown) [CBK304865] | 103
CCc1noc(C)c1C(=O)N1CCN(C2CCCC2O)CC1 (stereo not shown) [CBK304869] | 78
CC1CN(S(=O)(=O)C(C)C)CCC1NCc1ccncc1 (stereo not shown) [CBK304870] | 89.6
O=C(Cc1ccn[nH]1)N1CC(O)CC1c1cc(F)ccc1F (stereo not shown) [CBK304872] | 92.3
CN(CCc1ccncc1)C(=O)CCc1cc(F)ccc1F [CBK304876] | 90.6
O=C(NCCN1CCCCC1)C1CC(=O)N(Cc2ccco2)C1 (stereo not shown) [CBK304877] | 89.8
CCOC(=O)c1ccoc1CN1CCCC1c1ccsc1 (stereo not shown) [CBK304878] | 86.7
Cc1c(C(C)NCC(O)COc2ccc(C#N)cc2)cnn1C (stereo not shown) [CBK304881] | 97.5
Cc1nc(S(=O)(=O)CC2CCCO2)n(CC(C)C)c1C (stereo not shown) [CBK304882] | 116
Cc1ccc(OCC(=O)Nc2ncn(Cc3cccnc3)n2)cc1 [CBK304888] | 85
CCc1nc2ccccc2n1CC(=O)N(CCC#N)Cc1cccnc1 [CBK304892] | 87.7
O=C1NCCN1C1CCN(c2ncnc3ccccc23)CC1 [CBK304896] | 83.1
COc1cc(OC)cc(C(=O)Nc2ncccc2OCCCC#N)c1 [CBK304899] | 88.3
O=C(CN1CCC(NC(=O)c2cccs2)CC1)NCc1ccccc1F [CBK304901] | 97.2

Compound | viability at 28.5 h, 10 µM [%]
Cc1cc(C)n(CC2CN(CC(=O)NCc3cccs3)CCO2)n1 (stereo not shown) [CBK304902] | 109
CCCn1cc(NC(=O)C2(c3ccccc3)CCOCC2)ccc1=O [CBK304905] | 90.1
Cn1ncc2c(=O)n(Cc3nc(C(C)(C)C)no3)cnc21 [CBK304906] | 87.9
CC(C)Oc1ncc(C(=O)N(CCC#N)Cc2ccco2)cc1Cl [CBK304908] | 91.6
Cc1nnc2ccc(N3CCN(Cc4cscn4)CC3)nn12 [CBK304910] | 101
Cn1cnnc1C1CCN(C(=O)CC2OCCc3sccc32)CC1 (stereo not shown) [CBK304912] | 90.2
CN(C)CCn1c(=O)oc2ccc(NC(=O)C3CCCO3)cc21 (stereo not shown) [CBK304913] | 93.9
CCc1[nH]ncc1C(=O)N1CCN(c2nccc(OC)n2)CC1 [CBK304915] | 86.4
CCc1noc(C)c1C(=O)N1CCN(C(C#N)C2CCCCC2)CC1 (stereo not shown) [CBK304916] | 88.8
CCCN1CCC(NC(=O)Cn2c(C3CC3)nc3ccccc32)CC1 [CBK304917] | 89.2
CCN(CC)C(=O)Cc1ccc(NC(=O)NCc2cnn(C)c2)cc1 [CBK304918] | 111
Cn1ccc(CN2CCOC(c3nccs3)C2)cc1=O (stereo not shown) [CBK304921] | 88.8
N#CCCN(Cc1ccco1)C(=O)c1ccc(NC2CC2)nc1 [CBK304922] | 88.2
Cc1c(C(=O)N2CCn3c(C)nnc3C2)sc2cccc(F)c12 [CBK304923] | 87.5
Cn1ncc2c(=O)[nH]c(N3CCN(c4cc(C#N)ccn4)CC3)nc21 [CBK304924] | 92.4
COC(=O)c1ccc(N2CCN(C(C)c3nnc(C)o3)C(C)C2)cc1 (stereo not shown) [CBK304926] | 108
Cc1cc(C)n(CC(=O)N2CCOC(c3ccccc3Cl)C2)n1 (stereo not shown) [CBK304927] | 91.9
Cc1cc(C)c2c(OCC(=O)N(C)CC(=O)NC(C)C)nn(C)c2n1 [CBK304931] | 84.1
Cn1nc(C(C)(C)C)cc1NC(=O)CN1CCc2cncnc2C1 [CBK304934] | 106
COc1ccc(CC(=O)N(C)Cc2nnc3ccccn23)cc1 [CBK304935] | 87.8
Cc1ccc(Cl)c(OC(C)C(=O)N2CCCC(C(N)=O)C2)c1 (stereo not shown) [CBK304936] | 99.3
CC(C)Cn1ncc2cc(C(=O)Nc3ccnn3C(C)C)cnc21 [CBK304938] | 79
CC(C)NC(=O)CN(CCO)Cc1cc(Br)ccc1F [CBK304944] | 90.7
Cn1c(=O)c2c(ncn2Cc2noc(-c3ccoc3)n2)n(C)c1=O [CBK304945] | 86.3

Compound | viability at 28.5 h, 10 µM [%]
CN(C(=O)C1CC1)C1CCN(c2ncnc3ccccc23)CC1 [CBK304946] | 80
Cc1nc(-c2cccnc2)[nH]c(=O)c1CC(=O)N1CCN(C)CC1C (stereo not shown) [CBK304950] | 100
O=C(Nc1ncn(CC(=O)N2CCCCCC2)n1)c1cccs1 [CBK304953] | 78.1
Cc1cccc(C(=O)Nc2ncn(CC(=O)N3CCCCCC3)n2)n1 [CBK304954] | 86.6
Cc1nnc2n1CCN(C(=O)CC1OCCc3sccc31)C2 (stereo not shown) [CBK304956] | 94
COc1ccc(CCC(=O)Nc2ncccc2OCCCC#N)cc1 [CBK304957] | 105
CCn1c(CN2CCC(c3noc(C)n3)CC2)nc2c(F)cccc21 [CBK304960] | 91.1
Cc1nn(C)c(C)c1NC(=O)COc1ccc2c(c1)CCCC2=O [CBK304963] | 98.5
Cc1ccc(C)c(CC(=O)N(C)C2CCN(C3CCOCC3)CC2)c1 [CBK304964] | 87.4
CCCC(C)N(C)C(=O)CCc1c(C)nc(-c2cccnc2)[nH]c1=O (stereo not shown) [CBK304965] | 106
Cc1cccn2cc(CC(=O)OCC(=O)NC(C)(C)C)nc12 [CBK304966] | 110
COc1ccc(C)cc1C1(CNC(=O)C2CCC(=O)N2)CCOCC1 (stereo not shown) [CBK304967] | 94.8
c1cnn(CC2CCCN2c2ncnc3sccc23)c1 (stereo not shown) [CBK304968] | 92.5
c1cnn(CC2CCCCN2c2ncnc3sccc23)c1 (stereo not shown) [CBK304969] | 92.1
CC(O)CN1CCN(c2nc(-c3ccncc3)nc3c2CCC3)CC1 (stereo not shown) [CBK304971] | 90.3
NC(=O)N1CCC(C(=O)N2CC3(CCCC3)c3c(F)cccc32)CC1 [CBK304973] | 108
O=C(Nc1ncn(CC(=O)N2CCCCCC2)n1)c1ccsc1 [CBK304974] | 99.4
CC1CCc2c(sc3ncnc(OCC(=O)N(C)CCC#N)c23)C1 (stereo not shown) [CBK304976] | 89.8
COC(=O)C1CCN(Cc2nc3sc4c(c3c(=O)[nH]2)CCC(C)C4)CC1 (stereo not shown) [CBK304978] | 99.2
CC1CCc2c(sc3ncnc(OCC(=O)N4CCCCC4)c23)C1 (stereo not shown) [CBK304979] | 87.5
CC(C)CNS(=O)(=O)c1ccc(N2CCCC2=O)cc1 [CBK304981] | 106
COC(=O)c1cc(C#N)c(=O)n(CC(O)COc2cccc(Br)c2)c1 (stereo not shown) [CBK304984] | 80.5
Cc1nc2nc(N)nn2c(C)c1CCC(=O)NCc1ccccc1 [CBK304986] | 95.7
Cc1ccccc1CNC(=O)CCc1c(C)nc2nc(N)nn2c1C [CBK304987] | 108

Compound | viability at 28.5 h, 10 µM [%]
COCCN(C(=O)CSc1ccc2ccccc2n1)C1CCS(=O)(=O)C1 (stereo not shown) [CBK304988] | 96.4
Cc1nc2nc(N)nn2c(C)c1CCC(=O)NCCc1ccccc1 [CBK304989] | 89.5
COC(=O)c1cc(C#N)c(=O)n(CC(O)COc2ccccc2)c1 (stereo not shown) [CBK304991] | 99.3
Cc1ccccc1CCNC(=O)CCc1c(C)nc2nc(N)nn2c1C [CBK304994] | 93.6
CCN1CCC(NC(=O)CSc2nc3ccccc3n2CC(C)C)CC1 [CBK304995] | 106
Cc1ccnc2nc(C(=O)OC(C)C(=O)NC3CC3)nn12 (stereo not shown) [CBK304998] | 92.5
CC1c2ccsc2CCN1C(=O)COc1ccc(Br)cc1 (stereo not shown) [CBK304999] | 98
CC1CC(C)CN(C(=O)c2cc(S(=O)(=O)N3CCOCC3)ccc2Cl)C1 (stereo not shown) [CBK305000] | 87
Cc1nc(N2CCOCC2)[nH]c(=O)c1CCC(=O)Nc1ccccc1F [CBK305003] | 97.7
O=C(c1cc(S(=O)(=O)NCc2ccco2)c(Cl)cc1Cl)N1CCC1 [CBK305004] | 98
CCC1CCC2(CC1)NC(=O)N(Cc1nc(-c3cccs3)no1)C2=O (stereo not shown) [CBK305005] | 92.6
CCn1cc(C(=O)N2CCc3sccc3C2)c(=O)c2ccc(C)nc21 [CBK305006] | 94.3
CC1CCc2c(sc3ncnc(NC4CCN(CC(N)=O)CC4)c23)C1 (stereo not shown) [CBK305008] | 91.7
CSc1ncccc1C(=O)NCc1ccc(NC(C)=O)cc1 [CBK305009] | 97
CC(=O)Nc1ccc(CNC(=O)c2ccoc2C)cc1 [CBK305010] | 114
Cc1ccc(Cc2cnc(NC(=O)C3CCCO3)s2)cc1Cl (stereo not shown) [CBK305013] | 96
O=C(CSc1nnc(C2CC2)o1)Nc1ccc(CN2CCOCC2)cc1 [CBK305015] | 86
Cc1csc(NC(=O)c2cccc(S(=O)(=O)NCC3CCCO3)c2)n1 (stereo not shown) [CBK305017] | 96.7
CCCn1c(SC(C)C(=O)N2CCOCC2)nc2ccc(Br)cc2c1=O (stereo not shown) [CBK305020] | 92.2
CCNC(=O)C(C)NC(=O)c1cnn(-c2ccc(Br)cc2)c1C (stereo not shown) [CBK305021] | 79.3
CCc1ccc(C(=O)C(C)OC(=O)c2nc3nc(C)cc(C)n3n2)cc1 (stereo not shown) [CBK305023] | 87.7
Cc1nc(C)c(CCC(=O)Nc2cccc(F)c2)c(=O)[nH]1 [CBK305026] | 90.3
